Results reported in patent US20250092065A1, “2-(INDAZOL-5-YL)-6-(PIPERIDIN-4-YL)-1,7-NAPHTHYRIDINE DERIVATIVES AND RELATED COMPOUNDS AS MODULATORS FOR SPLICING NUCLEIC ACIDS AND FOR THE TREATMENT OF PROLIFERATIVE DISEASES” (REMIX THERAPEUTICS INC., priority 2022, published 2025).
Like-named read-outs stand apart in the source and are kept apart here.

Tested on: HTT mRNA
Experiment: RT-qPCR splicing assay, HTT mRNA canonical (CJ) and alternative (AJ) junction
Assay type: cell-based, human
Settings: Homo sapiens; for AC50: HTT alternative junction mRNA, read-out: HTT AJ (increase in AJ mRNA, AC50)
Method in brief: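 Splice switching quantified in compound-treated A673/K562 cells after 24 h exposure (top dose 10 uM, 3-fold steps, ≤0.25% DMSO), using CJ and AJ qPCR assays run at least in duplicate. RQ derived by 2^(−ΔΔCt), then percentage response.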

[1] = HTT canonical junction mRNA, RT-qPCR, read-out: HTT CJ (decrease in CJ mRNA levels, IC50)
[2] = canonical junction qPCR panel, Table 4, read-out: HTT IC50 (decrease in CJ mRNA levels)

Row | SMILES | AC50 (RT-qPCR) [nM] | IC50 [1] [nM] | IC50 [2] [nM]
1 | CNC(=O)c1nc(-c2cc3cn(C)nc3c(F)c2O)nc2ccc(N3CCC(N4CCC4)CC3)cc12 [Compound 722, 6-[4-(azetidin-1-yl)piperidin-1-yl]-2-(7-fluoro-6-hydroxy-2-methylindazol-5-yl)-N-methylquinazoline-4-carboxamide] | 100 to 1000 | < 100 | < 100
2 | Cc1cc(N2C[C@@H](C)N[C@@H](C)C2)cc2c(Cl)cc(-c3cc4cn(C)nc4c(F)c3O)nc12 [Compound 723, 5-{4-chloro-6-[(3R,5S)-3,5-dimethylpiperazin-1-yl]-8-methylquinolin-2-yl}-7-fluoro-2-methylindazol-6-ol] | 100 to 1000 | < 100 | < 100
3 | CNC(=O)c1nc(-c2cc3cn(C)nc3c(F)c2O)nc2ccc(N3CCNC4(CC4)C3)cc12 [Compound 728, 6-{4,7-diazaspiro[2.5]octan-7-yl}-2-(7-fluoro-6-hydroxy-2-methylindazol-5-yl)-N-methylquinazoline-4-carboxamide] | 100 to 1000 | 100 to 1000 | 100 to 1000
4 | CNC(=O)c1nc(-c2cc3cn(C)nc3c(F)c2O)nc2ccc(N3CC[C@@H](NC)C3)cc12 [Compound 729, 2-(7-fluoro-6-hydroxy-2-methylindazol-5-yl)-N-methyl-6-[(3R)-3-(methylamino)pyrrolidin-1-yl]quinazoline-4-carboxamide] | < 100 | < 100 | < 100
5 | C[C@@H]1CN(c2ccc3nc(-c4cc5cn(C)nc5c(F)c4O)nc(-c4nccs4)c3c2)C[C@H](C)N1 [Compound 732, 5-{6-[(3R,5S)-3,5-dimethylpiperazin-1-yl]-4-(1,3-thiazol-2-yl)quinazolin-2-yl}-7-fluoro-2-methylindazol-6-ol] | > 10000 | > 10000 | > 10000
6 | C[C@@H]1CN(c2ccc3nc(-c4cc5cn(C)nc5c(F)c4O)nc(C(=O)NCCO)c3c2)C[C@H](C)N1 [Compound 737, 6-[(3R,5S)-3,5-dimethylpiperazin-1-yl]-2-(7-fluoro-6-hydroxy-2-methylindazol-5-yl)-N-(2-hydroxyethyl)quinazoline-4-carboxamide] | 1000 to 10000 | 1000 to 10000 | 1000 to 10000
7 | CNC(=O)c1nc(-c2cc3cn(C)nc3cc2O)nc2ccc(N3CCC(N(C)C)CC3)cc12 [Compound 742, 6-[4-(dimethylamino)piperidin-1-yl]-2-(6-hydroxy-2-methylindazol-5-yl)-N-methylquinazoline-4-carboxamide] | > 10000 | 100 to 1000 | 100 to 1000
8 | C[C@@H]1CN(c2ccc3nc(-c4cc5cn(C)nc5c(F)c4O)ncc3c2)C[C@H](C)N1 [Compound 743, 5-{6-[(3R,5S)-3,5-dimethylpiperazin-1-yl]quinazolin-2-yl}-7-fluoro-2-methylindazol-6-ol] | 1000 to 10000 | > 10000 | > 10000
9 | C[C@H]1CN(c2ccc3nc(-c4cc5cn(C)nc5c(F)c4O)ncc3c2)C[C@H](C)N1 [Compound 744, 5-{6-[(3S,5S)-3,5-dimethylpiperazin-1-yl]quinazolin-2-yl}-7-fluoro-2-methylindazol-6-ol] | < 100 | < 100 | < 100
10 | C[C@@H]1CN(c2ccc3nc(-c4cc5cn(C)nc5c(F)c4O)ncc3c2)C[C@@H](C)N1 [Compound 745, 5-{6-[(3R,5R)-3,5-dimethylpiperazin-1-yl]quinazolin-2-yl}-7-fluoro-2-methylindazol-6-ol] | 100 to 1000 | 100 to 1000 | 100 to 1000
11 | CN[C@@H]1CCN(c2cc3c(Cl)cc(-c4cc5cn(C)nc5c(C)c4O)nc3cc2C)C1 [Compound 748, 5-{4-chloro-7-methyl-6-[(3R)-3-(methylamino)pyrrolidin-1-yl]quinolin-2-yl}-2,7-dimethylindazol-6-ol] | > 10000 | > 10000 | > 10000
